Laboratory results published in ChEMBL document CHEMBL5375954, “Discovery and Evaluation of C6-Substituted Pyrazolopyrimidine-Based Bisphosphonate Inhibitors of the Human Geranylgeranyl Pyrophosphate Synthase and Evaluation of Their Antitumor Efficacy in Multiple Myeloma, Pancreatic Ductal Adenocarcinoma, and Colorectal Cancer” (J Med Chem, 2023).
Calls of active or inactive are those of the source. The calls are words filed in the database; no cut-off is given here.

Columns and labels:
[1] = Metabolic stability in human liver microsomes assessed as compound remaining incubated for 45 mins in absence of NADPH by LC-MS/MS analysis; type: ADME, Microsome; conditions: 0.75 h
KMS-28PE = assay: Antiproliferative activity against human KMS-28-PE cells harboring KRAS G12A mutant at 0.1 to 10000 nM incubated for 72 hrs by MTS assay; type: functional, cell-based; conditions: dose 0.1-10000 nM
HCT-116 [2] = assay: Induction of apoptosis in human HCT-116 cells assessed as necrotic cells at 1 uM incubated for 72 hrs in presence of geranylgeraniol by APC-Annexin-V/7-AAD staining based flow cytometry (reference value: 2.99%); type: functional
RPMI-8226 [3] = assay: Antitumor activity against human RPMI-8226 cells xenografted in NSG mouse assessed as reduction in tumor volume at 3 mg/kg, ip administered 3 times a week for 26 days; type: functional, organism-based; conditions: time 26.0 day
JJN-3 = assay: Antiproliferative activity against human JJN-3 cells harboring wild type KRAS at 0.1 to 10000 nM incubated for 72 hrs by MTS assay; type: functional, cell-based; conditions: dose 0.1-10000 nM
[4] = Metabolic stability in human liver microsomes assessed as compound remaining incubated for 45 mins in presence of NADPH by LC-MS/MS analysis; type: ADME, Microsome; conditions: 0.75 h
HCT-116 [5] = assay: Induction of apoptosis in human HCT-116 cells assessed as live cells at 1 uM incubated for 72 hrs in presence of geranylgeraniol by APC-Annexin-V/7-AAD staining based flow cytometry (reference value: 95.3%); type: functional
[6] = Hepatotoxicity in male NSG mouse xenografted with human RPMI-8226 cells assessed as prominent nucleoli at 3 mg/kg, ip administered 3 times a week for 26 days and measured 48 hrs post last dose by H and E staining based assay; type: toxicity, organism-based; conditions: in vivo, 672 h, time 28 day
[7] = Volume of distribution in Sprague-Dawley rat at 3 mg/kg, iv measured for 24 hrs by LC-MS/MS analysis; type: ADME, organism-based; conditions: in vivo
[8] = Cytotoxicity against human IMR-90 cells assessed as inhibition of cell growth at 360 nM incubated for 72 hrs by MTS assay relative to control; type: toxicity, cell-based
[9] = Hepatotoxicity in female NSG mouse xenografted with human RPMI-8226 cells assessed as inflammatory infiltrates at 3 mg/kg, ip administered 3 times a week for 26 days and measured 48 hrs post last dose by H and E staining based assay; type: toxicity, organism-based; conditions: in vivo, 672 h, time 28 day
[10] = Plasma clearance in Sprague-Dawley rat at 3 mg/kg, iv measured for 24 hrs by LC-MS/MS analysis; type: ADME, organism-based
RPMI-8226 [11] = assay: cells; conditions: Homo sapiens, RPMI-8226, 72 h
[12] = Hepatotoxicity in female NSG mouse xenografted with human RPMI-8226 cells assessed as serum ALT level at 3 mg/kg, ip administered 3 times a week for 26 days and measured 48 hrs post last dose (reference value: 30 to 98 IU/L); type: toxicity, organism-based; conditions: in vivo, 672 h, time 28 day
[13] = molecular target: T1, Ras-related protein Rap-1A (Homo sapiens) (UniProt P62834); assay: Inhibition of RAP-1A prenylation in human MIA PaCa-2 cells incubated for 48 hrs by Western blot analysis; type: cell-based; conditions: dose 10-1000 nM
T1 sequence (whole entry): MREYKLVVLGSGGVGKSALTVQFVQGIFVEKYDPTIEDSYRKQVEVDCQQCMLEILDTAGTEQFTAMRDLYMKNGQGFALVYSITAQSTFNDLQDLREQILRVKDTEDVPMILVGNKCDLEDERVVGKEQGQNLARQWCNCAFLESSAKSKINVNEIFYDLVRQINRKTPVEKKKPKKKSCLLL

[14] = Hepatotoxicity in male NSG mouse xenografted with human RPMI-8226 cells assessed as vasculitis or perivasculitis at 3 mg/kg, ip administered 3 times a week for 26 days and measured 48 hrs post last dose by H and E staining based assay; type: toxicity, organism-based; conditions: in vivo, 672 h, time 28 day
[15] = Hepatotoxicity in female NSG mouse xenografted with human RPMI-8226 cells assessed as serum AST level at 3 mg/kg, ip administered 3 times a week for 26 days and measured 48 hrs post last dose (reference value: 84 to 229 IU/L); type: toxicity, organism-based; conditions: in vivo, 672 h, time 28 day
MIA PaCa-2 [16] = assay: Induction of apoptosis in human MIA PaCa-2 cells assessed as necrotic cells at 1 uM incubated for 72 hrs by APC-Annexin-V/7-AAD staining based flow cytometry (reference value: 0.75%); type: functional
[17] = Hepatotoxicity in male NSG mouse xenografted with human RPMI-8226 cells assessed as eosinophilic degeneration at 3 mg/kg, ip administered 3 times a week for 26 days and measured 48 hrs post last dose by H and E staining based assay; type: toxicity, organism-based; conditions: in vivo, 672 h, time 28 day
[18] = Metabolic stability in Beagle dog liver microsomes assessed as compound remaining incubated for 45 mins in absence of NADPH by LC-MS/MS analysis; type: ADME, Canis lupus familiaris, Microsome; conditions: 0.75 h
[19] = Metabolic stability in CD-1 mouse liver microsomes assessed as compound remaining incubated for 45 mins in absence of NADPH by LC-MS/MS analysis; type: ADME, Microsome; conditions: 0.75 h
[20] = Toxicity in NSG mouse xenografted with human MIA PaCa-2 cells assessed as weight loss at 3 mg/kg, ip administered 3 times a week for 26 days and measured daily; type: organism-based; conditions: in vivo, time 26 day
HCT-116 [21] = assay: Induction of apoptosis in human HCT-116 cells assessed as live cells at 1 uM incubated for 72 hrs by APC-Annexin-V/7-AAD staining based flow cytometry (reference value: 95.3%); type: functional
MIA PaCa-2 [22] = assay: Induction of apoptosis in human MIA PaCa-2 cells at 1 uM incubated for 72 hrs in presence of geranylgeraniol by APC-Annexin-V/7-AAD staining based flow cytometry; type: functional, cell-based
MIA PaCa-2 [23] = assay: cells; conditions: Homo sapiens, MIA PaCa-2, 72 h
MIA PaCa-2 [24] = assay: Induction of apoptosis in human MIA PaCa-2 cells at 1 uM incubated for 72 hrs by APC-Annexin-V/7-AAD staining based flow cytometry relative to control; type: functional
HCT-116 [25] = assay: Induction of apoptosis in human HCT-116 cells assessed as early apoptotic cells at 1 uM incubated for 72 hrs in presence of geranylgeraniol by APC-Annexin-V/7-AAD staining based flow cytometry (reference value: 1.16%); type: functional
[26] = Metabolic stability in Sprague-Dawley rat liver microsomes assessed as compound remaining incubated for 45 mins in absence of NADPH by LC-MS/MS analysis; type: ADME, Microsome; conditions: 0.75 h
[27] = Half life in Sprague-Dawley rat at 3 mg/kg, iv measured for 24 hrs by LC-MS/MS analysis; type: ADME, organism-based; conditions: in vivo
[28] = Hepatotoxicity in female NSG mouse xenografted with human RPMI-8226 cells assessed as single-cell necrosis at 3 mg/kg, ip administered 3 times a week for 26 days and measured 48 hrs post last dose by H and E staining based assay; type: toxicity, organism-based; conditions: in vivo, 672 h, time 28 day
[29] = Selectivity index, ratio of EC50 for human MIA PaCa-2 cells to EC50 for human RPMI-8226 cells; type: functional
HCT-116 [30] = assay: Induction of apoptosis in human HCT-116 cells assessed as necrotic cells at 1 uM incubated for 72 hrs by APC-Annexin-V/7-AAD staining based flow cytometry (reference value: 2.99%); type: functional

For `Cn1ncc2c(NC(P(=O)(O)O)P(=O)(O)O)nc(-c3cccc(C(=O)Nc4ccc(C(F)(F)F)cc4)c3)nc21`, the Stability [1] was 100%, the Activity (KMS-28PE) was “Active” and the Activity (HCT-116 [2]) was 2.55%. The Activity (RPMI-8226 [3]) was “Active”, the Activity (JJN-3) was “Active” and the Stability [4] was 107%. For the same molecule, the Activity (HCT-116 [5]) was 93.2%, the Activity [6] was “Non-Toxic” and the Vd [7] was 0.055 L/kg. The inhibition at 72 h, 0.36 µM [8] was 0%, the Activity [9] was “Non-Toxic” and the clearance [10] was 0.2 mL/min/kg. The EC50 (RPMI-8226 [11]) was 70 nM, the Activity [12] was 59 IU/L and the inhibition [13] was “Dose-Dependent Effect”. The Activity [14] was “Non-Toxic”, the Activity [15] was 199 IU/L and the Activity (MIA PaCa-2 [16]) was 13.4%. The Activity [17] was “Non-Toxic”, the Stability [18] was 81.7% and the Stability [19] was 121%. For the same molecule, the Activity [20] was “Non-Toxic”, the Activity (HCT-116 [21]) was 56.6% and the Activity (MIA PaCa-2 [22]) was “inactive”. The EC50 (MIA PaCa-2 [23]) was 790 nM, the Activity (MIA PaCa-2 [24]) was about 50% and the Activity (HCT-116 [25]) was 1.54%. For the same molecule, the Stability [26] was 99.3%, the half-life [27] was 3.84 h and the Activity [28] was “Non-Toxic”. The “Ratio EC50” value [29] was about 10 and the Activity (HCT-116 [30]) was 4.6%.
